# Patent US9957297B2, “Template-fixed peptidomimetics as inhibitors of FPR1” (POLYPHOR AG, priority 2011, dated 2018)
# Where a SMILES comes first, the peptide text is derived from it. Bridges are numbered along the chain shown (N, C = ends). [ ]: non-standard residue; d: D form. Dab = NCC[C@H](N)C(=O)O
# Target: T1, FPR1 (Homo sapiens, UniProt P21462)
# T1 construct: host or cells: CHO (PathHunter CHO-FPR1 β-arrestin cells)
# T1 sequence (P21462 1-350): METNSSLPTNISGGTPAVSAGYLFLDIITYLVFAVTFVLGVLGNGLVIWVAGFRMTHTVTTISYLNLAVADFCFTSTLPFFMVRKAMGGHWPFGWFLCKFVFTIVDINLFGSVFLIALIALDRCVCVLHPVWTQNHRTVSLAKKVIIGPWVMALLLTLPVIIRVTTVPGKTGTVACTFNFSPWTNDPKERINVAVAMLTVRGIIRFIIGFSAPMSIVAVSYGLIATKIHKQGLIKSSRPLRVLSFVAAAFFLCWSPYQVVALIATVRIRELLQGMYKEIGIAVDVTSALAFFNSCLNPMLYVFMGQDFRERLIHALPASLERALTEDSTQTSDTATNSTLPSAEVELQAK
# Assay: FPR1 β-arrestin recruitment assay (PathHunter CHO-FPR1, antagonistic mode)
# Format: cell-based
# Conditions: CHO FPR1 β-arrestin cells; antagonistic assay vs reference agonist fMLF at its EC80; 60 min preincubation
# Method: 2.2 FPR1 β-Arrestin Recruitment Assay
# The PathHunter CHO—FPR1 (DiscoverX) assay was performed according to the manufacturer's protocol. In brief, CHO FPR1 β-arrestin cells were seeded at a density of 9000 cells per well in 20 μl of Ham's F12 medium (Invitrogen) in black 384-well culture plates and incubated overnight at 37° C. in a humidified atmosphere with 5% CO2. The next day, serial dilutions of the β-hairpin peptidomimetics of this invention have been prepared in DMSO and subsequently diluted in HBSS buffer supplemented with 20 mM Hepes and 0.1% BSA.
# For antagonistic assay, 5 μl of compound solution or buffer was added to the cells with a final DMSO concentration of 0.5% (v/v). The plate was incubated for 60 min at 37° C. with 5% CO2 before addition of […] of the reference agonist fMLF peptide (Sigma-Aldrich) at its EC80 concentration. After 90 min of incubation at 37° C. with 5% CO2, 15 μl of beta-Glo detection reagent (Promega) were added. Reaction was developed for 20 min at room temperature and chemiluminescence was measured with a Victor2V (Perkin Elmer) luminescence reader.
compound,measurement,value
"CC[C@H](C)[C@@H]1NC(=O)[C@H]([C@@H](C)O)NC(=O)[C@H](Cc2c[nH]c3ccccc23)NC(=O)[C@@H](C)NC(=O)CNC(=O)[C@H](Cc2c[nH]cn2)NC(=O)[C@@H]2CSSC[C@H](NC1=O)C(=O)N[C@@H](Cc1ccc(O)cc1)C(=O)N[C@@H](CCC(=O)O)C(=O)N[C@@H](CCCCN)C(=O)N1CCC[C@@H]1C(=O)N[C@@H](CCC(=O)O)C(=O)N[C@@H](Cc1ccc(O)cc1)C(=O)N[C@@H](Cc1c[nH]cn1)C(=O)N[C@@H](CCCCN)C(=O)N2 [Ex. 4, cyclo(-Tyr-His-Lys-Cys-His-Gly-^DAla-Trp-Thr-Ile-Cys-Tyr-Glu-Lys-^DPro-Glu-)] (cyclo(YHKCHG[dA]WTICYEK[dP]E); disulfide 4-11)",IC50,77 ± 22 nM
"CC[C@H](C)[C@@H]1NC(=O)[C@H]([C@@H](C)O)NC(=O)[C@H](Cc2c[nH]c3ccccc23)NC(=O)[C@H]2CCCN2C(=O)CNC(=O)[C@H](Cc2c[nH]cn2)NC(=O)[C@@H]2CSSC[C@H](NC1=O)C(=O)N[C@@H](Cc1ccc(O)cc1)C(=O)N[C@@H](CCC(N)=O)C(=O)N[C@@H](CCCCN)C(=O)N1CCC[C@@H]1C(=O)N1CCC[C@H]1C(=O)N[C@@H](Cc1ccc(O)cc1)C(=O)N[C@@H](Cc1c[nH]cn1)C(=O)N[C@@H](Cc1c[nH]c3ccccc13)C(=O)N2 [Ex. 11, cyclo(-Tyr-His-Trp-Cys-His-Gly-^DPro-Trp-Thr-Ile-Cys-Tyr-Gln-Lys-^DPro-Pro-)] (cyclo(YHWCHG[dP]WTICYQK[dP]P); disulfide 4-11)",IC50,177 ± 121 nM
"CC[C@H](C)[C@@H]1NC(=O)[C@H]([C@@H](C)O)NC(=O)[C@H](Cc2c[nH]c3ccccc23)NC(=O)[C@H]2CCCN2C(=O)CNC(=O)[C@H](Cc2c[nH]c3ccccc23)NC(=O)[C@@H]2CSSC[C@H](NC1=O)C(=O)N[C@@H](Cc1ccc(O)cc1)C(=O)N[C@@H](CCC(N)=O)C(=O)N[C@@H](CCCCN)C(=O)N1CCC[C@@H]1C(=O)N1CCC[C@H]1C(=O)N[C@@H](Cc1ccc(O)cc1)C(=O)N[C@@H](Cc1c[nH]cn1)C(=O)N[C@@H](C)C(=O)N2 [Ex. 40, cyclo(-Tyr-His-Ala-Cys-Trp-Gly-^DPro-Trp-Thr-Ile-Cys-Tyr-Gln-Lys-^DPro-Pro-)] (cyclo(YHACWG[dP]WTICYQK[dP]P); disulfide 4-11)",IC50,96 ± 30 nM
"CC[C@H](C)[C@@H]1NC(=O)[C@H]([C@@H](C)O)NC(=O)[C@H](Cc2c[nH]c3ccccc23)NC(=O)[C@H]2CCCN2C(=O)CNC(=O)[C@H](Cc2c[nH]cn2)NC(=O)[C@@H]2CSSC[C@H](NC1=O)C(=O)N[C@@H](Cc1ccc(O)cc1)C(=O)N[C@@H](CCC(=O)O)C(=O)N[C@@H](CCCCN)C(=O)N1CCC[C@@H]1C(=O)N[C@@H](CCN)C(=O)N[C@@H](Cc1ccc(O)cc1)C(=O)N[C@@H](Cc1c[nH]cn1)C(=O)N[C@@H](CCCCN)C(=O)N2 [Ex. 89, cyclo(-Tyr-His-Lys-Cys-His-Gly-^DPro-Trp-Thr-Ile-Cys-Tyr-Glu-Lys-^DPro-Dab-)] (cyclo(YHKCHG[dP]WTICYEK[dP][Dab]); disulfide 4-11)",IC50,189 ± 65 nM
"CC[C@H](C)[C@@H]1NC(=O)[C@H]([C@@H](C)O)NC(=O)[C@H](Cc2c[nH]c3ccccc23)NC(=O)[C@H]2CCCN2C(=O)CNC(=O)[C@H](Cc2c[nH]cn2)NC(=O)[C@@H]2CSSC[C@H](NC1=O)C(=O)N[C@@H](Cc1ccc(O)cc1)C(=O)N[C@@H](CCC(=O)O)C(=O)N[C@@H](CCCCN)C(=O)N[C@H](CCCCN)C(=O)N[C@@H](CCC(=O)O)C(=O)N[C@@H](Cc1ccc(O)cc1)C(=O)N[C@@H](Cc1c[nH]cn1)C(=O)N[C@@H](CCCCN)C(=O)N2 [compound 5, cyclo(-Tyr-His-Lys-Cys-His-Gly-^DPro-Trp-Thr-Ile-Cys-Tyr-Glu-Lys-^DLys-Glu-)] (cyclo(YHKCHG[dP]WTICYEK[dK]E); disulfide 4-11)",IC50,124 ± 67 nM
"CC[C@H](C)[C@@H]1NC(=O)[C@H]([C@@H](C)O)NC(=O)[C@H](Cc2c[nH]c3ccccc23)NC(=O)[C@H]2CCCN2C(=O)CNC(=O)[C@H](Cc2c[nH]cn2)NC(=O)[C@@H]2CSSC[C@H](NC1=O)C(=O)N[C@@H](Cc1ccc(O)cc1)C(=O)N[C@@H](CCC(=O)O)C(=O)N[C@@H](CCCCN)C(=O)N[C@H](C)C(=O)N[C@@H](CCC(=O)O)C(=O)N[C@@H](Cc1ccc(O)cc1)C(=O)N[C@@H](Cc1c[nH]cn1)C(=O)N[C@@H](CCCCN)C(=O)N2 [compound 6, cyclo(-Tyr-His-Lys-Cys-His-Gly-^DPro-Trp-Thr-Ile-Cys-Tyr-Glu-Lys-^DAla-Glu-)] (cyclo(YHKCHG[dP]WTICYEK[dA]E); disulfide 4-11)",IC50,124 ± 10 nM
"CC[C@H](C)[C@@H]1NC(=O)[C@H]([C@@H](C)O)NC(=O)[C@H](Cc2c[nH]c3ccccc23)NC(=O)[C@H]2CCCN2C(=O)CNC(=O)[C@H](Cc2c[nH]cn2)NC(=O)[C@@H]2CSSC[C@H](NC1=O)C(=O)N[C@@H](Cc1ccc(O)cc1)C(=O)N[C@@H](CCC(=O)O)C(=O)N[C@@H](CCCCN)C(=O)N1CCC[C@@H]1C(=O)N1CCC[C@H]1C(=O)N[C@@H](Cc1ccc(O)cc1)C(=O)N[C@@H](Cc1c[nH]cn1)C(=O)N[C@@H](C)C(=O)N2 [compound 30, cyclo(-Tyr-His-Ala-Cys-His-Gly-^DPro-Trp-Thr-Ile-Cys-Tyr-Glu-Lys-^DPro-Pro-)] (cyclo(YHACHG[dP]WTICYEK[dP]P); disulfide 4-11)",IC50,189 ± 79 nM
"CC[C@H](C)[C@@H]1NC(=O)[C@H]([C@@H](C)O)NC(=O)[C@H](Cc2c[nH]c3ccccc23)NC(=O)[C@H]2CCCN2C(=O)CNC(=O)[C@H](Cc2c[nH]c3ccccc23)NC(=O)[C@@H]2CSSC[C@H](NC1=O)C(=O)N[C@@H]([C@@H](C)O)C(=O)N[C@@H](CCC(N)=O)C(=O)N[C@@H](CCCCN)C(=O)N1CCC[C@@H]1C(=O)N1CCC[C@H]1C(=O)N[C@@H](Cc1ccc(O)cc1)C(=O)N[C@@H](Cc1c[nH]cn1)C(=O)N[C@@H](C)C(=O)N2 [compound 34, cyclo(-Tyr-His-Ala-Cys-Trp-Gly-^DPro-Trp-Thr-Ile-Cys-Thr-Gln-Lys-^DPro-Pro-)] (cyclo(YHACWG[dP]WTICTQK[dP]P); disulfide 4-11)",IC50,685 ± 68 nM
"CC[C@H](C)[C@@H]1NC(=O)[C@H]([C@@H](C)O)NC(=O)[C@H](Cc2c[nH]c3ccccc23)NC(=O)[C@H]2CCCN2C(=O)CNC(=O)[C@H](Cc2c[nH]c3ccccc23)NC(=O)[C@@H]2CSSC[C@H](NC1=O)C(=O)N[C@@H](Cc1ccc(O)cc1)C(=O)N[C@@H](CCC(=O)O)C(=O)N[C@@H](CCCCN)C(=O)N[C@H](C)C(=O)N1CCC[C@H]1C(=O)N[C@@H](Cc1ccc(O)cc1)C(=O)N[C@@H](Cc1c[nH]cn1)C(=O)N[C@@H](CCCCN)C(=O)N2 [compound 42, cyclo(-Tyr-His-Lys-Cys-Trp-Gly-^DPro-Trp-Thr-Ile-Cys-Tyr-Glu-Lys-^DAla-Pro-)] (cyclo(YHKCWG[dP]WTICYEK[dA]P); disulfide 4-11)",IC50,126 ± 78 nM
"CC[C@H](C)[C@@H]1NC(=O)[C@H]([C@@H](C)O)NC(=O)[C@H](Cc2c[nH]c3ccccc23)NC(=O)[C@H]2CCCN2C(=O)CNC(=O)[C@H](Cc2c[nH]c3ccccc23)NC(=O)[C@@H]2CSSC[C@H](NC1=O)C(=O)N[C@@H](Cc1ccc(O)cc1)C(=O)N[C@@H](CCC(=O)O)C(=O)N[C@@H](CCCCN)C(=O)N[C@H](CCCCN)C(=O)N1CCC[C@H]1C(=O)N[C@@H](Cc1ccc(O)cc1)C(=O)N[C@@H](Cc1c[nH]cn1)C(=O)N[C@@H](CCCCN)C(=O)N2 [compound 43, cyclo(-Tyr-His-Lys-Cys-Trp-Gly-^DPro-Trp-Thr-Ile-Cys-Tyr-Glu-Lys-^DLys-Pro-)] (cyclo(YHKCWG[dP]WTICYEK[dK]P); disulfide 4-11)",IC50,126 ± 53 nM
"CC[C@H](C)[C@@H]1NC(=O)[C@H]([C@@H](C)O)NC(=O)[C@H](Cc2c[nH]c3ccccc23)NC(=O)[C@H]2CCCN2C(=O)CNC(=O)[C@H](Cc2c[nH]c3ccccc23)NC(=O)[C@@H]2CSSC[C@H](NC1=O)C(=O)N[C@@H](Cc1ccc(O)cc1)C(=O)N[C@@H](CCC(=O)O)C(=O)N[C@@H](CCCCN)C(=O)N1CCC[C@@H]1C(=O)N1CCC[C@H]1C(=O)N[C@@H](Cc1ccc(O)cc1)C(=O)N[C@@H](Cc1c[nH]cn1)C(=O)N[C@@H](CCCCN)C(=O)N2 [compound 51, cyclo(-Tyr-His-Lys-Cys-Trp-Gly-^DPro-Trp-Thr-Ile-Cys-Tyr-Glu-Lys-^DPro-Pro-)] (cyclo(YHKCWG[dP]WTICYEK[dP]P); disulfide 4-11)",IC50,54 ± 21 nM
"CC[C@H](C)[C@@H]1NC(=O)[C@H]([C@@H](C)O)NC(=O)[C@H](Cc2c[nH]c3ccccc23)NC(=O)[C@H]2CCCN2C(=O)CNC(=O)[C@H](Cc2c[nH]cn2)NC(=O)[C@@H]2CSSC[C@H](NC1=O)C(=O)N[C@@H](Cc1ccc(O)cc1)C(=O)N[C@@H](CCC(=O)O)C(=O)N[C@@H](CCN)C(=O)N1CCC[C@@H]1C(=O)N1CCC[C@H]1C(=O)N[C@@H](Cc1ccc(O)cc1)C(=O)N[C@@H](Cc1c[nH]cn1)C(=O)N[C@@H](CCCCN)C(=O)N2 [compound 56, cyclo(-Tyr-His-Lys-Cys-His-Gly-^DPro-Trp-Thr-Ile-Cys-Tyr-Glu-Dab-^DPro-Pro-)] (cyclo(YHKCHG[dP]WTICYE[Dab][dP]P); disulfide 4-11)",IC50,82 ± 29 nM
